Test results published in patent US20130224128A1, “DENTAL CLEANSER COMPOSITION FOR IMPROVING ADHESION TO TEETH” (NANO INTELLIGENT BIOMEDICAL ENGINEERING CO., LTD., priority 2010, published 2013).
Where two headings read alike, the source gives them in different places.

Conditions: surfactant applied for 2 minutes to plates coated with 100 μg/ml LPS, absorbance 620 nm, FIG. 6
Experimental: To measure the removal of bacterial lipopolysaccharide, a HEK-Blue LPS detection kit (InvivoGen, San Diego, Calif., USA) was used. 24-well plates were coated with 100 μg/ml of an LPS standard (E. coli K12 LPS) and allowed to stand at 4° C. for 8 hours. […] HEK-Blue cells were dispersed in detection media, after which the cells were seeded onto the plates at a density of 4×10^4 cells/well and cultured at 37° C. for 24 hours. The absorbance at a wavelength of 620 nm was measured using a microplate reader (BIO-TEK, Winooski, Vt., USA). The ratio of the remaining LPS standard was calculated using the absorbance of a lipopolysaccharide-free water-coated well as a blank.

Row | Substance | relative ratio of the remaining LPS standard | relative ratio of the remaining LPS standard (listed as octyl phenol ethoxylate)
1 | Tween 20 | higher in the order of polyoxyethylene (HLB 10)<Tween 20 (HLB 16)<Span 80 (HLB 4) | –
2 | Sorbitan monooleate [Span 80] | higher in the order of polyoxyethylene (HLB 10)<Tween 20 (HLB 16)<Span 80 (HLB 4) | –
3 | octyl phenol ethoxylate [Triton X-100] | the ratio of the remaining LPS standard was the lowest | has the best effect on the removal of lipopolysaccharide
